The compounds below were run on MDCK cells (assay: HGF-induced epithelial-mesenchymal transition / migration of MDCK cells on transwell filters (crystal violet densitometry)). Conditions: Canis lupus familiaris, MDCK, 24 h, Table 3, 10 μM compound, then HGF, percentage like untreated controls (unstimulated cells = maximal effect, HGF only = nil).
Type: cell-based
Description: MDCK cells were seeded at confluency into the wells of a transwell filter in DMEM with 10% fetal bovine serum. Cells were cultured for 24 hours. Test compounds, dissolved in DMSO, were added to each test well to a 10 μM final concentration, and then hepatocyte growth factor (HGF) was then added. The MDCK cells were cultured for 24 hours. Concurrently, controls treated with and without HGF and with no test compounds were also prepared.
After post-HGF addition culturing, transwell filters were prepared by repeated washing using ice cold PBS. The cells were then fixed with paraformaldehyde (3.7%) on ice for 15 minutes to the filters. After fixation, the transwell filters were washed repeatedly with PBS followed by staining with crystal violet for 15 minutes. The transwell filters were washed again with distilled water.
The upper surface of the transwell filters were swabbed using a cotton-tipped probe. The filters were photographed using a gel documentation system. Densitometry measurements were made on the test samples and compared with control samples.

Which inhibition at 10 µM does the source give for COc1ccc(/C=N/c2ccccc2C(N)=O)cc1 [Compound A-15] here?
The inhibition at 10 µM was under 5%.

Cc1ccc(/C=N/c2ccccc2C(N)=O)o1 [Compound A-13] was tested. Which inhibition at 10 µM did it give?
The inhibition at 10 µM was 11.2%.

For NC(=O)c1ccccc1/N=C/c1cccc(Cl)c1Cl [Compound A-1], which inhibition at 10 µM is on record?
Its inhibition at 10 µM is 94%.

Which inhibition at 10 µM does the source give for COc1cc(CNc2ccc(C)c(Cl)c2)cc(Br)c1OC [Compound A-19] here?
Its inhibition at 10 µM is over 5%.

How did the inhibition at 10 µM turn out when NC(=O)c1ccccc1/N=C/c1ccc2ccccc2c1 [Compound A-6] was run?
The inhibition at 10 µM was over 5%.

For NC(=O)c1ccccc1/N=C/c1cccc2ccccc12 [Compound A-3], which inhibition at 10 µM is on record?
Its inhibition at 10 µM is 87.8%.

With COc1cc(CNc2cc(C(=O)O)ccc2C)cc(Br)c1OC [Compound A-22] as the compound, how does the inhibition at 10 µM read?
Its inhibition at 10 µM is 33.1%.

Which inhibition at 10 µM does the source give for NC(=O)c1ccccc1/N=C/c1ccco1 [Compound A-11] here?
The inhibition at 10 µM was 27.9%.

NC(=O)c1ccccc1/N=C/c1cccc(O)c1O [Compound A-5] was tested. Which inhibition at 10 µM did it give?
Its inhibition at 10 µM is 48.8%.

Same assay, conditions: Canis lupus familiaris, MDCK, 24 h, Table 4, 10 μM compound, then HGF, percentage like untreated controls (unstimulated cells = maximal effect, HGF only = nil)

For O=C(Nc1ccccn1)c1cccc([N+](=O)[O-])c1 [Compound B-8], which inhibition at 10 µM is on record?
Its inhibition at 10 µM is 45.3%.

COc1ccc(C(=O)Nc2cccc(C)n2)cc1[N+](=O)[O-] [Compound B-11] was tested. Which inhibition at 10 µM did it give?
Its inhibition at 10 µM is under 5%.

Which inhibition at 10 µM does the source give for O=C(Nc1ncc(Br)cc1Br)c1cccc([N+](=O)[O-])c1 [Compound B-12] here?
Its inhibition at 10 µM is 42.4%.

Same assay, conditions: Canis lupus familiaris, MDCK, 24 h, Table 5, 10 μM compound, then HGF, percentage like untreated controls (unstimulated cells = maximal effect, HGF only = nil)

How did the inhibition at 10 µM turn out when Cc1cccc(NS(=O)(=O)c2cccc([N+](=O)[O-])c2)c1 [Compound B-36] was run?
The inhibition at 10 µM was 79.2%.

COc1ccc(C(=O)c2cc([N+](=O)[O-])ccc2N2CCOCC2)cc1 [Compound B-34] was tested. Which inhibition at 10 µM did it give?
Its inhibition at 10 µM is 93.4%.

How did the inhibition at 10 µM turn out when COc1cc(C(=O)Nc2ccc(N3CCCC3=O)cc2)cc(OC)c1OC [Compound B-24] was run?
Its inhibition at 10 µM is 93.2%.

With CCN1CCN(c2ccc(NC(=O)c3cc(OC)c(OC)c(OC)c3)cc2Cl)CC1 [Compound B-26] as the compound, how does the inhibition at 10 µM read?
The inhibition at 10 µM was over 5%.

For O=C(Nc1cccc(C(=O)c2ccccc2)c1)c1ccc(-c2ccccc2)cc1 [Compound B-18], which inhibition at 10 µM is on record?
The inhibition at 10 µM was 93.8%.

How did the inhibition at 10 µM turn out when O=[N+]([O-])c1cccc(S(=O)(=O)Nc2ccc(Cl)c(Cl)c2)c1 [Compound B-35] was run?
The inhibition at 10 µM was 71.1%.

Same assay, conditions: Canis lupus familiaris, MDCK, 24 h, Table 6, 10 μM compound, then HGF, percentage like untreated controls (unstimulated cells = maximal effect, HGF only = nil)

For COC(=O)c1[nH]c2c(c1C)C(=O)CC(c1ccc(OC)cc1)C2 (centres unmarked) [Compound C-16], which inhibition at 10 µM is on record?
The inhibition at 10 µM was under 5%.

For Cc1c(C(=O)OC2CCCC2)[nH]c2c1C(=O)CC(c1ccco1)C2 (centres unmarked) [Compound C-14], which inhibition at 10 µM is on record?
Its inhibition at 10 µM is under 5%.

With COC(=O)c1[nH]c2c(c1C)C(=O)CC(c1cccs1)C2 (centres unmarked) [Compound C-3] as the compound, how does the inhibition at 10 µM read?
The inhibition at 10 µM was 84.1%.

How did the inhibition at 10 µM turn out when Cc1c(C(=O)OC2CCCC2C)[nH]c2c1C(=O)CC(c1cccs1)C2 (centres unmarked) [Compound C-18] was run?
The inhibition at 10 µM was 92.2%.

CCOC(=O)c1[nH]c2c(c1C)C(=O)CC(c1ccc(OC)cc1)C2 (centres unmarked) [Compound C-13] was tested. Which inhibition at 10 µM did it give?
Its inhibition at 10 µM is under 5%.

Which inhibition at 10 µM does the source give for Cc1c(C(=O)OC(C)C)[nH]c2c1C(=O)CC(c1cccs1)C2 (centres unmarked) [Compound C-7] here?
Its inhibition at 10 µM is 35.9%.

For CCOC(=O)c1[nH]c2c(c1C)C(=O)CC(c1cccs1)C2 (centres unmarked) [Compound C-2], which inhibition at 10 µM is on record?
The inhibition at 10 µM was 49.7%.

With Cc1c(C(=O)OCC2CCCO2)[nH]c2c1C(=O)CC(c1cccs1)C2 (centres unmarked) [Compound C-17] as the compound, how does the inhibition at 10 µM read?
Its inhibition at 10 µM is 75.7%.

How did the inhibition at 10 µM turn out when Cc1c(C(=O)OC2CCCC2)[nH]c2c1C(=O)CC(c1cccs1)C2 (centres unmarked) [Compound C-10] was run?
Its inhibition at 10 µM is 8.8%.

Same assay, conditions: Table 1; 10 μM compound, then HGF, 24 hours; percentage like untreated controls (unstimulated cells = maximal effect, HGF only = nil)

Which “Assay Value” does the source give for COc1cccc(C2CC(=O)Nc3cc4c(cc32)OCCO4)c1OC (centres unmarked) [Compound 23] here?
Its value is 69.3%.

Which “Assay Value” does the source give for O=C1CC(c2ccccc2C(F)(F)F)c2cc3c(cc2N1)CCC3 (centres unmarked) [Compound 28] here?
Its value is 95.2%.

Which “Assay Value” does the source give for O=C1CC(c2cc(Br)ccc2F)c2cc3c(cc2N1)CCC3 (centres unmarked) [Compound 4] here?
Its value is 36.1%.

How did the “Assay Value” turn out when O=C1CC(c2cc(Br)ccc2F)c2cc3c(cc2N1)OCCO3 (centres unmarked) [Compound 11] was run?
Its value is 27.9%.

How did the “Assay Value” turn out when COc1cccc(C2CC(=O)Nc3cc4c(cc32)CCC4)c1OC (centres unmarked) [Compound 26] was run?
Its value is 90.4%.

With COc1ccc(OC)c(C2CC(=O)Nc3cc4c(cc32)OCCO4)c1 (centres unmarked) [Compound 16] as the compound, how does the “Assay Value” read?
The value was 15.1%.

With O=C1CC(c2cc3c(cc2Br)OCO3)c2cc3c(cc2N1)CCC3 (centres unmarked) [Compound 27] as the compound, how does the “Assay Value” read?
Its value is 87.2%.

With COc1ccc(Cl)cc1C1CC(=O)Nc2cc3c(cc21)OCCO3 (centres unmarked) [Compound 10] as the compound, how does the “Assay Value” read?
The value was 62.9%.

How did the “Assay Value” turn out when COc1cc(C2CC(=O)Nc3cc4c(cc32)OCCO4)cc(Br)c1OC (centres unmarked) [Compound 6] was run?
Its value is 52.2%.

Which “Assay Value” does the source give for COc1cc(Br)c(C2CC(=O)Nc3cc4c(cc32)OCCO4)cc1OC (centres unmarked) [Compound 5] here?
The value was 29.3%.

Which “Assay Value” does the source give for COc1ccc(OC)c(C2CC(=O)Nc3cc(OC)c(OC)c(OC)c32)c1 (centres unmarked) [Compound 30] here?
Its value is 52.3%.

How did the “Assay Value” turn out when O=C1CC(c2ccc(F)c(Br)c2)c2cc3c(cc2N1)OCCO3 (centres unmarked) [Compound 21] was run?
The value was 11.2%.

Which “Assay Value” does the source give for COc1ccc(C2CC(=O)Nc3cc4c(cc32)OCCO4)cc1OC (centres unmarked) [Compound 15] here?
The value was 12.9%.

Same assay, conditions: Table 2; 10 μM compound, then HGF, 24 hours; percentage like untreated controls (unstimulated cells = maximal effect, HGF only = nil)

With CCOc1ccc(C2CC(=O)Nc3cc4c(cc32)OCCO4)cc1OC (centres unmarked) [Compound 63] as the compound, how does the “Assay Value” read?
Its value is under 5%.

How did the “Assay Value” turn out when O=C1CC(c2ccc([N+](=O)[O-])cc2)c2cc3c(cc2N1)OCCO3 (centres unmarked) [Compound 53] was run?
The value was under 5%.

O=C1CC(c2ccc(F)cc2F)c2cc3c(cc2N1)OCO3 (centres unmarked) [Compound 82] was tested. Which “Assay Value” did it give?
Its value is under 5%.

How did the “Assay Value” turn out when Cc1ccc(C2CC(=O)Nc3cc4c(cc32)OCCO4)cc1 (centres unmarked) [Compound 54] was run?
The value was under 5%.

For Cc1cccc(C2CC(=O)Nc3cc4c(cc32)OCO4)c1 (centres unmarked) [Compound 85], which “Assay Value” is on record?
The value was under 5%.

O=C1CC(c2ccc3c(c2)OCO3)c2cc3c(cc2N1)OCO3 (centres unmarked) [Compound 88] was tested. Which “Assay Value” did it give?
The value was under 5%.

Which “Assay Value” does the source give for O=C1CC(c2cccc(OCc3ccccc3)c2)c2cc3c(cc2N1)OCCO3 (centres unmarked) [Compound 58] here?
The value was under 5%.

For COc1ccc(C2CC(=O)Nc3cc4c(cc32)OCO4)cc1Cl (centres unmarked) [Compound 84], which “Assay Value” is on record?
Its value is under 5%.

For CC(C)c1ccc(C2CC(=O)Nc3cc4c(cc32)OCO4)cc1 (centres unmarked) [Compound 71], which “Assay Value” is on record?
The value was under 5%.

Which “Assay Value” does the source give for CSc1ccc(C2CC(=O)Nc3cc4c(cc32)OCCO4)cc1 (centres unmarked) [Compound 68] here?
The value was under 5%.

How did the “Assay Value” turn out when CCOc1c(Br)cc(C2CC(=O)Nc3cc(OC)c(OC)cc32)cc1OC (centres unmarked) [Compound 39] was run?
The value was under 5%.

How did the “Assay Value” turn out when COc1cc2c(cc1OC)C(c1cccc(OCc3ccccc3)c1)CC(=O)N2 (centres unmarked) [Compound 60] was run?
Its value is under 5%.

With O=C1CC(c2cccc(Cl)c2)c2cc3c(cc2N1)CCC3 (centres unmarked) [Compound 96] as the compound, how does the “Assay Value” read?
Its value is under 5%.

For CCOc1cc2c(cc1OCC)C(c1ccccc1F)CC(=O)N2 (centres unmarked) [Compound 74], which “Assay Value” is on record?
Its value is under 5%.

Which “Assay Value” does the source give for COc1cc2c(cc1OC)C(c1cccc(Br)c1)CC(=O)N2 (centres unmarked) [Compound 59] here?
The value was under 5%.

How did the “Assay Value” turn out when COc1cc2c(cc1OC)C(c1cc(C)ccc1C)CC(=O)N2 (centres unmarked) [Compound 57] was run?
Its value is under 5%.

COc1cc2c(cc1OC)C(c1cc(Br)ccc1OC)CC(=O)N2 (centres unmarked) [Compound 66] was tested. Which “Assay Value” did it give?
Its value is under 5%.

Which “Assay Value” does the source give for O=C1CC(c2cccc(Br)c2)c2cc3c(cc2N1)CCC3 (centres unmarked) [Compound 95] here?
Its value is under 5%.

How did the “Assay Value” turn out when O=C1CC(c2cc(F)cc(F)c2)c2cc3c(cc2N1)OCO3 (centres unmarked) [Compound 77] was run?
Its value is under 5%.

How did the “Assay Value” turn out when O=C1CC(c2ccc([N+](=O)[O-])cc2)c2cc3c(cc2N1)CCC3 (centres unmarked) [Compound 98] was run?
The value was under 5%.

With Cc1ccccc1C1CC(=O)Nc2cc3c(cc21)OCCO3 (centres unmarked) [Compound 45] as the compound, how does the “Assay Value” read?
The value was under 5%.

For CN(C)c1ccc(C2CC(=O)Nc3cc4c(cc32)OCO4)cc1 (centres unmarked) [Compound 80], which “Assay Value” is on record?
The value was under 5%.

For O=C1CC(c2ccc(F)cc2)c2cc3c(cc2N1)OCCO3 (centres unmarked) [Compound 62], which “Assay Value” is on record?
The value was under 5%.

Same assay, conditions: Table 3; 10 μM compound, then HGF, 24 hours; percentage like untreated controls (unstimulated cells = maximal effect, HGF only = nil)

How did the “Assay Value” turn out when COc1cc(CNc2ccc(C)c(Cl)c2)cc(Cl)c1OC [Compound A-21] was run?
The value was 57.5%.

Same assay, conditions: Table 4; 10 μM compound, then HGF, 24 hours; percentage like untreated controls (unstimulated cells = maximal effect, HGF only = nil)

How did the “Assay Value” turn out when Cc1nc(NC(=O)COc2ccc([N+](=O)[O-])cc2)ccc1Br [Compound B-1] was run?
Its value is 97.1%.

Source: US20130158035A1, “[…] COMPOUNDS” (Brigham Young University, priority 2010, published 2013)
